Measured values: the supplement of paper PMC10307832

Key:
Test in all cases: relative viability (nuclei count vs DMSO), 5 days (fraction); higher = more cells survive
[1] = test system: EKVX
Procedure, shortened: (§1)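 Lung cancer cell lines in 1536-well plates got either a single drug or a fixed anchor-drug dose together with five library-drug doses (not always all listed) in √10 steps, by pin tool, on the day after seeding. Nuclei were counted after 5 days, and relative viability is the treated-to-vehicle ratio of nuclei counts. Values are medians of duplicate plates.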

[2] = test system: NCI-H1666
Procedure, shortened: as §1

[3] = test system: NCI-H2342
Procedure, shortened: as §1

[4] = test system: HCC-827
Procedure, shortened: as §1

[5] = test system: NCI-H647
Procedure, shortened: as §1

[6] = test system: NCI-H650
Procedure, shortened: as §1

[7] = test system: HCC-44
Procedure, shortened: as §1

[8] = test system: 201T
Procedure, shortened: as §1

[9] = test system: NCI-H1975
Procedure, shortened: as §1

[10] = test system: COR-L 105
Procedure, shortened: as §1

[11] = test system: NCI-H2170
Procedure, shortened: as §1

[12] = test system: NCI-H1437
Procedure, shortened: as §1

[13] = test system: H3255
Procedure, shortened: as §1

[14] = test system: LCLC-97TM1
Procedure, shortened: as §1

[15] = test system: LU99A
Procedure, shortened: as §1

[16] = test system: EPLC-272H
Procedure, shortened: as §1

[17] = test system: NCI-H2085
Procedure, shortened: as §1

[18] = test system: NCI-H2087
Procedure, shortened: as §1

[19] = test system: SW 1573
Procedure, shortened: as §1

[20] = test system: BEN
Procedure, shortened: as §1

[21] = test system: PC-3 [JPC-3]
Procedure, shortened: as §1

[22] = test system: LOU-NH91
Procedure, shortened: as §1

SMILES: CCN(CC)CCCCNc1ncc2cc(-c3cc(OC)cc(OC)c3)c(NC(=O)NC(C)(C)C)nc2n1 + N=C(N)NC(=N)NCCc1ccccc1 [Phenformin] (partner 250 µM)
- relative viability ([1]; first compound 0.01 µM): 0.223
- relative viability ([1]; first compound 0.03162 µM): 0.227
- relative viability ([1]; first compound 0.1 µM): 0.243
- relative viability ([1]; first compound 0.3162 µM): 0.258
- relative viability ([1]; first compound 1 µM): 0.248
- relative viability ([2]; first compound 0.01 µM): 0.582
- relative viability ([2]; first compound 0.03162 µM): 0.562
- relative viability ([2]; first compound 0.1 µM): 0.574
- relative viability ([2]; first compound 0.3162 µM): 0.644
- relative viability ([2]; first compound 1 µM): 0.507
- relative viability ([3]; first compound 0.01 µM): 0.578
- relative viability ([3]; first compound 0.03162 µM): 0.582
- relative viability ([3]; first compound 0.1 µM): 0.56
- relative viability ([3]; first compound 0.3162 µM): 0.664
- relative viability ([3]; first compound 1 µM): 0.648
- relative viability ([4]; first compound 0.01 µM): 0.437
- relative viability ([4]; first compound 0.03162 µM): 0.422
- relative viability ([4]; first compound 0.1 µM): 0.417
- relative viability ([4]; first compound 0.3162 µM): 0.467
- relative viability ([4]; first compound 1 µM): 0.426
- relative viability ([5]; first compound 0.01 µM): 0.451
- relative viability ([5]; first compound 0.03162 µM): 0.59
- relative viability ([5]; first compound 0.1 µM): 0.556
- relative viability ([5]; first compound 0.3162 µM): 0.804
- relative viability ([5]; first compound 1 µM): 0.239
- relative viability ([6]; first compound 0.01 µM): 0.417
- relative viability ([6]; first compound 0.03162 µM): 0.442
- relative viability ([6]; first compound 0.1 µM): 0.449
- relative viability ([6]; first compound 0.3162 µM): 0.47
- relative viability ([6]; first compound 1 µM): 0.451
- relative viability ([7]; first compound 0.01 µM): 0.189
- relative viability ([7]; first compound 0.03162 µM): 0.195
- relative viability ([7]; first compound 0.1 µM): 0.237
- relative viability ([7]; first compound 0.3162 µM): 0.234
- relative viability ([7]; first compound 1 µM): 0.22
- relative viability ([8]; first compound 0.01 µM): 0.477
- relative viability ([8]; first compound 0.03162 µM): 0.479
- relative viability ([8]; first compound 0.1 µM): 0.51
- relative viability ([8]; first compound 0.3162 µM): 0.47
- relative viability ([8]; first compound 1 µM): 0.376
- relative viability ([9]; first compound 0.01 µM): 0.429
- relative viability ([9]; first compound 0.03162 µM): 0.398
- relative viability ([9]; first compound 0.1 µM): 0.481
- relative viability ([9]; first compound 0.3162 µM): 0.408
- relative viability ([9]; first compound 1 µM): 0.401
- relative viability ([10]; first compound 0.01 µM): 0.476
- relative viability ([10]; first compound 0.03162 µM): 0.521
- relative viability ([10]; first compound 0.1 µM): 0.47
- relative viability ([10]; first compound 0.3162 µM): 0.615
- relative viability ([10]; first compound 1 µM): 0.421
- relative viability ([11]; first compound 0.01 µM): 0.417
- relative viability ([11]; first compound 0.03162 µM): 0.416
- relative viability ([11]; first compound 0.1 µM): 0.414
- relative viability ([11]; first compound 0.3162 µM): 0.413
- relative viability ([11]; first compound 1 µM): 0.345
- relative viability ([12]; first compound 0.01 µM): 0.29
- relative viability ([12]; first compound 0.03162 µM): 0.298
- relative viability ([12]; first compound 0.1 µM): 0.28
- relative viability ([12]; first compound 0.3162 µM): 0.362
- relative viability ([12]; first compound 1 µM): 0.257
- relative viability ([13]; first compound 0.01 µM): 0.347
- relative viability ([13]; first compound 0.03162 µM): 0.336
- relative viability ([13]; first compound 0.1 µM): 0.27
- relative viability ([13]; first compound 0.3162 µM): 0.408
- relative viability ([13]; first compound 1 µM): 0.356
- relative viability ([14]; first compound 0.01 µM): 0.465
- relative viability ([14]; first compound 0.03162 µM): 0.42
- relative viability ([14]; first compound 0.1 µM): 0.514
- relative viability ([14]; first compound 0.3162 µM): 0.428
- relative viability ([14]; first compound 1 µM): 0.506
- relative viability ([15]; first compound 0.01 µM): 0.764
- relative viability ([15]; first compound 0.03162 µM): 0.841
- relative viability ([15]; first compound 0.1 µM): 1.04
- relative viability ([15]; first compound 0.3162 µM): 0.772
- relative viability ([15]; first compound 1 µM): 0.756
- relative viability ([16]; first compound 0.01 µM): 0.324
- relative viability ([16]; first compound 0.03162 µM): 0.3
- relative viability ([16]; first compound 0.1 µM): 0.236
- relative viability ([16]; first compound 0.3162 µM): 0.296
- relative viability ([16]; first compound 1 µM): 0.288
- relative viability ([17]; first compound 0.01 µM): 0.735
- relative viability ([17]; first compound 0.03162 µM): 0.661
- relative viability ([17]; first compound 0.1 µM): 0.76
- relative viability ([17]; first compound 0.3162 µM): 0.808
- relative viability ([17]; first compound 1 µM): 0.779
- relative viability ([18]; first compound 0.01 µM): 0.42
- relative viability ([18]; first compound 0.03162 µM): 0.537
- relative viability ([18]; first compound 0.1 µM): 0.536
- relative viability ([18]; first compound 0.3162 µM): 0.522
- relative viability ([18]; first compound 1 µM): 0.429
- relative viability ([19]; first compound 0.01 µM): 0.351
- relative viability ([19]; first compound 0.03162 µM): 0.372
- relative viability ([19]; first compound 0.1 µM): 0.394
- relative viability ([19]; first compound 0.3162 µM): 0.36
- relative viability ([19]; first compound 1 µM): 0.36
- relative viability ([20]; first compound 0.01 µM): 0.261
- relative viability ([20]; first compound 0.03162 µM): 0.236
- relative viability ([20]; first compound 0.1 µM): 0.278
- relative viability ([20]; first compound 0.3162 µM): 0.464
- relative viability ([20]; first compound 1 µM): 0.244
- relative viability ([21]; first compound 0.01 µM): 0.485
- relative viability ([21]; first compound 0.03162 µM): 0.484
- relative viability ([21]; first compound 0.1 µM): 0.487
- relative viability ([21]; first compound 0.3162 µM): 0.498
- relative viability ([21]; first compound 1 µM): 0.449
- relative viability ([22]; first compound 0.01 µM): 0.572
- relative viability ([22]; first compound 0.03162 µM): 0.683
- relative viability ([22]; first compound 0.1 µM): 0.795
- relative viability ([22]; first compound 0.3162 µM): 0.797
- relative viability ([22]; first compound 1 µM): 0.713
